This assay relates to PU.1 URE−/− AML cells. Briefly: Gene expression (transcriptome) analysis of PU.1 URE−/− AML cells. The class given is cell-based, murine. The settings on record: by at least 1.2-fold. The method, then: FIG. 3A-3G. Novel inhibitors show on-target PU.1 inhibitory activity. (A) Quantitative RT-PCR analysis of Csf1r, Junb, Sfpi1, E2f1 expression after 72 h (n=6) and, for Csf1r, after 1 h (n=3), 4 h (n=7), 8 h (n=3) and 24 h (n=3) of treatment with the small molecules in URE−/− cells, expression is normalized to GAPDH expression. Data represent means±SD of technical triplicate from one representative experiment; fold change compared to Vehicle is shown. (B) Chromatin immunoprecipitation assay showing PU.1 occupancy on E2f1, Junb, Csf1r promoters after treatment in Umsh cell line (n=5). 10·10^6 cells were collected for each condition after 8 h treatment with a double dose of the small molecules (50 uM for DB1976, 1.4 uM for DB2115 and 660 nM for DB2313) or Vehicle; and processed for ChIP using PU.1 monoclonal antibody. Myogenin was used as a negative control, not regulated by PU.1. Data represent means±SD of technical triplicate from one representative experiment. (C) Cell viability after PU.1 rescue in MOLM13 cells. MOLM13 were transduced with a lentiviral construct expressing either PU.1-GFP (PU.1, black bar) or GFP as a control (empty, white bar), sorted on GFP and plated with DB1976 (n=7), DB2115 (n=8), DB2313 (n=6) or Vehicle. Cell count was performed after 4 days. Data represent means±SD of technical triplicate from one representative experiment; fold change compared to Vehicle is shown. (D-G) Transcriptome analysis of URE−/− cells after 24 h of treatment with DB2313 versus vehicle (n=3). Differentially expressed genes were determined with a fold change at 1.2 and a P value <0.1. (D) Enrichment in genes directly regulated by PU.1 or in genes regulated by the other ETS transcription factors Ets1, Gabpa, Spi-B, Fli-1, using Ingenuity Knowledge Base. The red dotted line represents the significance threshold (−log (P value)>1.3). […] Deregulated gens in PUER cells were analyzed with a FC at 1.5 and P-value <0.05. […] P-value was calculated using the hypergeometric test. […]

Where a name gives a salt, the structure may show the parent alone.

Regarding `CC(C)NC(=N)c1ccc2nc(-c3ccc(OCc4cccc(COc5ccc(-c6nc7ccc(C(=N)NC(C)C)cc7[nH]6)cc5)c4F)cc3)[nH]c2c1` [DB2313, 3-Bis{4[4(5)-N-isopropylamidinobenzimidazolyl]phenoxymethyl]}-2-fluorobenzene tetrahydrochloride], the “number of downregulated probe sets” value was found to be 781 probe sets and the “number of upregulated probe sets” value amounted to 867 probe sets. For the same molecule, the “number of dysregulated transcripts (out of 34,472 total)” value (24 h) stood at 1648 transcripts.

The values above are taken from US10774049B2, “PU.1 inhibitors” (Albert Einstein College of Medicine, priority 2016, dated 2020).
